Source: ChEMBL document CHEMBL1153852, “Steroidal lactones as inhibitors of 17beta-hydroxysteroid dehydrogenase type 5: chemical synthesis, enzyme inhibitory activity, and assessment of estrogenic and androgenic activities” (Eur J Med Chem, 2009)
The source made the active and inactive calls. No cut-off for these calls is given here.

What was measured:
[1] = biological target: T1, 17-beta-hydroxysteroid dehydrogenase type 3 (Homo sapiens) (UniProt P37058); experiment: Inhibition of human 17beta-HSD3 expressed in HEK293 cells assessed as enzyme-mediated transformation of [14C]-4-androstene-3,17-dione in to [14C]-testosterone at 1 uM; assay type: cell-based
T1 sequence (whole entry): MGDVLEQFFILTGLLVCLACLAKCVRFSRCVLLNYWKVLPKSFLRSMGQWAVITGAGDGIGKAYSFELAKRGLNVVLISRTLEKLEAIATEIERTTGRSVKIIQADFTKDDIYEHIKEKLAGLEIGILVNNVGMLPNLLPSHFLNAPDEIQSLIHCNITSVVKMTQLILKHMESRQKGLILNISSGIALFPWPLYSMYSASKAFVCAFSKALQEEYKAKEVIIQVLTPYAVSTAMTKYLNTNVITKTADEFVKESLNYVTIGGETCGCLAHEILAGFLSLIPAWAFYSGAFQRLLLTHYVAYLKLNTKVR

[2] = biological target: T1, 17-beta-hydroxysteroid dehydrogenase type 3 (Homo sapiens); experiment: Inhibition of human 17beta-HSD3 expressed in HEK293 cells assessed as enzyme-mediated transformation of [14C]-4-androstene-3,17-dione in to [14C]-testosterone at 0.1 uM; assay type: cell-based
[3] = biological target: T2, 17-beta-hydroxysteroid dehydrogenase type 1 (Homo sapiens) (UniProt P14061); experiment: Inhibition of human 17beta-HSD1 expressed in HEK293 cells assessed as enzyme-mediated transformation of [14C]-E1 in to [14C]-E2 at 1 uM; assay type: cell-based
T2 sequence (whole entry): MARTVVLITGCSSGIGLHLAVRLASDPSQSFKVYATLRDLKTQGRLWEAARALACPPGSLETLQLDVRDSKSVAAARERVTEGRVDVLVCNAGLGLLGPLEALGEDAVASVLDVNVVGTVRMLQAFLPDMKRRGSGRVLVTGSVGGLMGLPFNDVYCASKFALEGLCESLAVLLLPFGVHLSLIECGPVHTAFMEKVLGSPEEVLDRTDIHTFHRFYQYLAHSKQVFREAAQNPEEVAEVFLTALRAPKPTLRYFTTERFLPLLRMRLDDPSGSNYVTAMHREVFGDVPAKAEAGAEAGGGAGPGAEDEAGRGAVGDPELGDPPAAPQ

[4] = biological target: T3, Estrogen receptor (Rattus norvegicus) (UniProt P06211); experiment: Binding affinity to rat uterus estrogen receptor at 1 uM
T3 sequence (whole entry): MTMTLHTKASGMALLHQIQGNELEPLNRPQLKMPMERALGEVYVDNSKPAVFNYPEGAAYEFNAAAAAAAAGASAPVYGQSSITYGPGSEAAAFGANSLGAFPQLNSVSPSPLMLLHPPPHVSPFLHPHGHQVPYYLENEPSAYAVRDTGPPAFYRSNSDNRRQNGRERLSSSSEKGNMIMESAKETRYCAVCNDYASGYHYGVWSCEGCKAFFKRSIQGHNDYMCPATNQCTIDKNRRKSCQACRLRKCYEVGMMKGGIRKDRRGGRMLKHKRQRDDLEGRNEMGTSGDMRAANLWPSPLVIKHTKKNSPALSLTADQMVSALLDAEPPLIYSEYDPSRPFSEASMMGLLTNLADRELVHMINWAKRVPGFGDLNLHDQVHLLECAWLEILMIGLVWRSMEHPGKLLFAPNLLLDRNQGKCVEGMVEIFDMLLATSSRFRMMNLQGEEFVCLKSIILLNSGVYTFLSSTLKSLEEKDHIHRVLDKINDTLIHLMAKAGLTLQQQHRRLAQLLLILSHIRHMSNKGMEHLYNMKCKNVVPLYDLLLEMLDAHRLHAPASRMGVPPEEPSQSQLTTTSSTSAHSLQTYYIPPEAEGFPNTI

[5] = biological target: T4, Androgen receptor (Rattus norvegicus) (UniProt P15207); experiment: Binding affinity to rat ventral prostate androgen receptor at 10 uM; assay type: tissue-based; details: Prostate gland
T4 sequence (whole entry): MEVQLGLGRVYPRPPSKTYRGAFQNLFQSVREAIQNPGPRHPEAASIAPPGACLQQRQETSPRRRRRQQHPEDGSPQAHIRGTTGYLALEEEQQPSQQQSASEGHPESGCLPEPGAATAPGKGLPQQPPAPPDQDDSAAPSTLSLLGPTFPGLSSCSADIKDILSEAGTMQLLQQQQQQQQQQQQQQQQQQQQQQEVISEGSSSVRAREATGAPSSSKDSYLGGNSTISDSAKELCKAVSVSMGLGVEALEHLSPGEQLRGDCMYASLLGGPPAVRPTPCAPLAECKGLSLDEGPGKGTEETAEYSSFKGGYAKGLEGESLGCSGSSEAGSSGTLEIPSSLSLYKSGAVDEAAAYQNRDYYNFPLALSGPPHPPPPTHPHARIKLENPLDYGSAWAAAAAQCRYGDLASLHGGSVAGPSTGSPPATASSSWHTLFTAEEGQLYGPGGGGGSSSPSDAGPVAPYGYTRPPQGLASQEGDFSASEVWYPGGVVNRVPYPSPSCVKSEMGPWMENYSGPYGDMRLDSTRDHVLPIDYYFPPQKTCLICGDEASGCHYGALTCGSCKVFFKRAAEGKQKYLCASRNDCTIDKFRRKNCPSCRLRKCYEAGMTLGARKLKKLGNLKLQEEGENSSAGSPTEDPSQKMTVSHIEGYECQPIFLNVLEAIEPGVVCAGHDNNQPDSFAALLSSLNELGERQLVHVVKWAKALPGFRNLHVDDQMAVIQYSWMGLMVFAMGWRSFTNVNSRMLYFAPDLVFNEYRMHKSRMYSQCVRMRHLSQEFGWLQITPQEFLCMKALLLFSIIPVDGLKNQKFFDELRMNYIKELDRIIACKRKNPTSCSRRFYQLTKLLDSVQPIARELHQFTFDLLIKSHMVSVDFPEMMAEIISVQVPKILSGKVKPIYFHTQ

[6] = biological target: T5, 17-beta-hydroxysteroid dehydrogenase type 2 (Homo sapiens) (UniProt P37059); experiment: Inhibition of human 17beta-HSD2 expressed in HEK293 cells assessed as enzyme-mediated transformation of [14C]-testosterone in to [14C]-4-androstene-3,17-dione at 0.1 uM; assay type: cell-based
T5 sequence (whole entry): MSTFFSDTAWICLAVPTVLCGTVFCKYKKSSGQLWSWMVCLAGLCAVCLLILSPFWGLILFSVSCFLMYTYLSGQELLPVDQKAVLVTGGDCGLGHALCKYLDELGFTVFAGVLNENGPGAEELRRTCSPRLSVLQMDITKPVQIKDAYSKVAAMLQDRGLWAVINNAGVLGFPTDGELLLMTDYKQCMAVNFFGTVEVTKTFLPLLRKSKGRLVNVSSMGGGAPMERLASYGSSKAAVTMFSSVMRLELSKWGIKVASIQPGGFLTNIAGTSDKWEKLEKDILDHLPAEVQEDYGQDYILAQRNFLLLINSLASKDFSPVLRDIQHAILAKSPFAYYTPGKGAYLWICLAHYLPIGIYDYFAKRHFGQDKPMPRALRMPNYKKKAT

[7] = biological target: T3, Estrogen receptor (Rattus norvegicus); experiment: Binding affinity to rat uterus estrogen receptor at 0.1 uM

Activity [5] [%]	Activity [6]	Activity [7] [%]	Compound	inhibition [1] [%]	inhibition [2] [%]	inhibition [3] [%]	Activity [4] [%]
			CC1(C)CC[C@@]2(CC[C@H]3[C@@H]4CCc5ccccc5[C@H]4CC[C@@]32C)OC1=O	64	25	50	0
6	inactive	10	CC1(C)CC[C@@]2(CC[C@H]3[C@@H]4CCc5cc(O)ccc5[C@H]4CC[C@@]32C)OC1=O				
